Measured values: ChEMBL document CHEMBL1158282, “Iridoid Molluscicidal Compounds from Apodytes dimidiata” (1996)
Values after ≈ are worked out from the molar mass of the structure shown.

System: Bulinus africanus
Test: Molluscicidal activity against Bulinus africanus
Assay type: functional
Settings: for LC50: Bulinus africanus, read-out: LD50 (the source's name)

`COC(=O)C1=CO[C@@H](O)[C@@H]2C(COC(C)=O)=CC[C@H]12` showed an LD90 of 39.4 ppm and an LC50 of 21.7 µg/mL (≈ 81 µM).

Compound `COC(=O)C1=CO[C@@H](O)[C@@H]2C(CO)=CC[C@H]12` [GENIPIN] has an LD90 of 32.57 ppm and an LC50 of 25.3 µg/mL (≈ 112 µM).
